In article PMC2764525 (Biochemistry, 2009):
Where “and” joins values, the source holds several entries; their conditions need not be identical. Equal entries are not always repeated. Where two headings read alike, the source gives them in different places.

Tests used:
wild-type nikD [1] = conditions: spectral titration, 100 mM potassium phosphate buffer, pH 8.0, 25 °C; cited from earlier work
nikD Asp276Asn [2] = biological target: T1, nikD Asp276Asn (Streptomyces tendae, UniProt Q9X9P9, D276N); assay: biochemical; format: binding
nikD Glu101Gln [3] = biological target: T2, nikD Glu101Gln (Streptomyces tendae, UniProt Q9X9P9, E101Q); assay: biochemical; format: binding
[4] = ionization at the N(3)H position in free FAD; cited from earlier work
nikD Glu101Gln [5] = biological target: T2, nikD Glu101Gln; assay: Anaerobic reductive half-reaction with P2C; format: biochemical
nikD Glu101Gln [6] = biological target: T2, nikD Glu101Gln; assay: Steady-state turnover with P2C and oxygen; format: biochemical
wild-type nikD [7] = conditions: pH 8.0, 25 °C, cited from earlier work
nikD Asp276Asn [8] = biological target: T1, nikD Asp276Asn; assay: Steady-state turnover with P2C and oxygen; format: biochemical
nikD Asp276Asn [9] = biological target: T1, nikD Asp276Asn; assay: Anaerobic reductive half-reaction with P2C; format: biochemical
wild-type nikD [10] = conditions: saturating P2C and oxygen, pH 8.0, 25 °C; cited from earlier work
nikD Glu101Gln [11] = biological target: T2, nikD Glu101Gln; conditions: pH 8
nikD Glu101Gln [12] = biological target: T2, nikD Glu101Gln; assay: biochemical
wild-type nikD [13] = conditions: cited from earlier work
[14] = apparent second-order rate constant from stopped-flow data, pH 8.0, 25 °C
[15] = limiting rate of fast phase at saturating P2C, pH 8.0, 25 °C
[16] = very fast phase preceding fast phase, pH 8.0, 25 °C
[17] = saturating concentrations of P2C and oxygen
[18] = one-step binding, pH 8.0, 25 °C

## O=C(O)C1=CCCCC1 [1-cyclohexenoate]
wild-type nikD [1]
  Kd: 12.8 ± 0.9 µM
nikD Asp276Asn [2]
  Kd: 6.5 ± 0.9 µM
nikD Glu101Gln [3]
  Kd: 0.9 ± 0.1 µM

## Cc1cc2nc3c(=O)[nH]c(=O)nc-3n(C[C@H](O)[C@H](O)[C@H](O)COP(=O)(O)OP(=O)(O)OC[C@H]3O[C@@H](n4cnc5c(N)ncnc54)[C@H](O)[C@@H]3O)c2cc1C [FAD, flavin adenine dinucleotide]
[4]
  pKa: 10.4

## O=C(O)C1=NCCCC1 [P2C, piperideine-2-carboxylate]
nikD Glu101Gln [5]
  Kd: 1.4 ± 0.2 mM
nikD Glu101Gln [5]; [14]
  klim/Kd app: 9 ± 1 × 10^3 M^-1 s^-1
nikD Glu101Gln [5]; [15]
  klim: 13.9 ± 0.9 s⁻¹
nikD Glu101Gln [5]; saturating P2C
  klim, fold faster than observed turnover rate (kcat): about 30 fold
  klim, fold slower than limiting rate with wild-type nikD: about 4 fold
nikD Glu101Gln [5]; [16]
  kvery fast, Y-intercept of linear dependence on P2C concentration: 10.1 ± 0.9 s⁻¹
  kvery fast, slope of linear dependence on P2C concentration: 8.8 ± 0.2 × 10^3 M^-1 s^-1
nikD Glu101Gln [6]; saturating P2C and oxygen, ping-pong mechanism fit, pH 8.0, 25 °C
  kcat: 0.50 ± 0.01 s⁻¹
nikD Glu101Gln [6]; [17]
  turnover rate, fold slower than wild-type nikD: about 5 fold
wild-type nikD [7]; limiting rate of fast phase at saturating P2C
  klim: 53 ± 1 s⁻¹
wild-type nikD [7]
  klim/Kd app: 2.0 ± 0.2 × 10^5 M^-1 s^-1
wild-type nikD [7]; read-out: Kd app, hyperbolic fit of fast phase
  Kd: 260 ± 20 µM
wild-type nikD [7]; slow phase, independent of P2C concentration
  kslow: 2.7 ± 0.1 s⁻¹
nikD Asp276Asn [8]
  Ki: 8 µM
nikD Asp276Asn [8]; saturating P2C and oxygen, sequential mechanism fit, pH 8.0, 25 °C
  kcat: 1.22 ± 0.04 s⁻¹
nikD Asp276Asn [8]; [17]
  turnover rate, fold slower than wild-type nikD: about 2 fold
nikD Asp276Asn [9]
  Kd: 110 ± 10 µM
nikD Asp276Asn [9]; [14]
  klim/Kd app: 1.01 ± 0.01 × 10^5 M^-1 s^-1 and 1.01 ± 0.09 × 10^5 M^-1 s^-1
nikD Asp276Asn [9]; [15]
  klim: 11.1 ± 0.2 s⁻¹
nikD Asp276Asn [9]; saturating P2C
  klim, fold faster than observed turnover rate (kcat): about 10 fold
  klim, fold slower than limiting rate with wild-type nikD: about 5 fold
nikD Asp276Asn [9]; slow phase, independent of P2C concentration, pH 8.0, 25 °C
  kslow: 3.0 ± 0.3 s⁻¹
wild-type nikD [10]
  kcat: 2.3 ± 0.2 s⁻¹

## C[Se]CC(=O)O [methylselenoacetate]
wild-type nikD [1]
  Kd: 1070 ± 40 µM
nikD Asp276Asn [2]
  Kd: 1000 ± 30 µM
nikD Glu101Gln [3]
  Kd: 112 ± 3 µM

## O=C(O)c1ccccn1 [picolinate]
nikD Glu101Gln [11]
  k3: 192 ± 9 s⁻¹
  k4: 27 ± 1 s⁻¹
wild-type nikD [1]
  Kd: 290 ± 40 µM
nikD Asp276Asn [2]
  Kd: 420 ± 20 µM
nikD Glu101Gln [12]
  Kd: 180 ± 30 µM
wild-type nikD [13]; [18]
  k1: 2.83 ± 0.04 × 10^4 M^-1 s^-1
  k2: 8.0 ± 0.7 s⁻¹
wild-type nikD [13]; read-out: Kd macroscopic (calc), calculated, equals k2/k1, pH 8.0, 25 °C
  Kd: 280 ± 30 µM
nikD Glu101Gln [3]
  Kd: 151 ± 2 µM
